For 35 compounds, inhibition results are on record in patent publication US20210188839A1, “COMPOUNDS AND THEIR METHODS OF USE” (Praxis Precision Medicines, Inc., priority 2016, published 2021).

Each structure is given as a SMILES string.

The target of the test is T1, human Nav1.6 (hNav1.6) (Homo sapiens, UniProt Q9UQD0).
T1 construct: expressed in transfected cells; host or cells: HEK-293
T1 sequence (Q9UQD0 whole entry): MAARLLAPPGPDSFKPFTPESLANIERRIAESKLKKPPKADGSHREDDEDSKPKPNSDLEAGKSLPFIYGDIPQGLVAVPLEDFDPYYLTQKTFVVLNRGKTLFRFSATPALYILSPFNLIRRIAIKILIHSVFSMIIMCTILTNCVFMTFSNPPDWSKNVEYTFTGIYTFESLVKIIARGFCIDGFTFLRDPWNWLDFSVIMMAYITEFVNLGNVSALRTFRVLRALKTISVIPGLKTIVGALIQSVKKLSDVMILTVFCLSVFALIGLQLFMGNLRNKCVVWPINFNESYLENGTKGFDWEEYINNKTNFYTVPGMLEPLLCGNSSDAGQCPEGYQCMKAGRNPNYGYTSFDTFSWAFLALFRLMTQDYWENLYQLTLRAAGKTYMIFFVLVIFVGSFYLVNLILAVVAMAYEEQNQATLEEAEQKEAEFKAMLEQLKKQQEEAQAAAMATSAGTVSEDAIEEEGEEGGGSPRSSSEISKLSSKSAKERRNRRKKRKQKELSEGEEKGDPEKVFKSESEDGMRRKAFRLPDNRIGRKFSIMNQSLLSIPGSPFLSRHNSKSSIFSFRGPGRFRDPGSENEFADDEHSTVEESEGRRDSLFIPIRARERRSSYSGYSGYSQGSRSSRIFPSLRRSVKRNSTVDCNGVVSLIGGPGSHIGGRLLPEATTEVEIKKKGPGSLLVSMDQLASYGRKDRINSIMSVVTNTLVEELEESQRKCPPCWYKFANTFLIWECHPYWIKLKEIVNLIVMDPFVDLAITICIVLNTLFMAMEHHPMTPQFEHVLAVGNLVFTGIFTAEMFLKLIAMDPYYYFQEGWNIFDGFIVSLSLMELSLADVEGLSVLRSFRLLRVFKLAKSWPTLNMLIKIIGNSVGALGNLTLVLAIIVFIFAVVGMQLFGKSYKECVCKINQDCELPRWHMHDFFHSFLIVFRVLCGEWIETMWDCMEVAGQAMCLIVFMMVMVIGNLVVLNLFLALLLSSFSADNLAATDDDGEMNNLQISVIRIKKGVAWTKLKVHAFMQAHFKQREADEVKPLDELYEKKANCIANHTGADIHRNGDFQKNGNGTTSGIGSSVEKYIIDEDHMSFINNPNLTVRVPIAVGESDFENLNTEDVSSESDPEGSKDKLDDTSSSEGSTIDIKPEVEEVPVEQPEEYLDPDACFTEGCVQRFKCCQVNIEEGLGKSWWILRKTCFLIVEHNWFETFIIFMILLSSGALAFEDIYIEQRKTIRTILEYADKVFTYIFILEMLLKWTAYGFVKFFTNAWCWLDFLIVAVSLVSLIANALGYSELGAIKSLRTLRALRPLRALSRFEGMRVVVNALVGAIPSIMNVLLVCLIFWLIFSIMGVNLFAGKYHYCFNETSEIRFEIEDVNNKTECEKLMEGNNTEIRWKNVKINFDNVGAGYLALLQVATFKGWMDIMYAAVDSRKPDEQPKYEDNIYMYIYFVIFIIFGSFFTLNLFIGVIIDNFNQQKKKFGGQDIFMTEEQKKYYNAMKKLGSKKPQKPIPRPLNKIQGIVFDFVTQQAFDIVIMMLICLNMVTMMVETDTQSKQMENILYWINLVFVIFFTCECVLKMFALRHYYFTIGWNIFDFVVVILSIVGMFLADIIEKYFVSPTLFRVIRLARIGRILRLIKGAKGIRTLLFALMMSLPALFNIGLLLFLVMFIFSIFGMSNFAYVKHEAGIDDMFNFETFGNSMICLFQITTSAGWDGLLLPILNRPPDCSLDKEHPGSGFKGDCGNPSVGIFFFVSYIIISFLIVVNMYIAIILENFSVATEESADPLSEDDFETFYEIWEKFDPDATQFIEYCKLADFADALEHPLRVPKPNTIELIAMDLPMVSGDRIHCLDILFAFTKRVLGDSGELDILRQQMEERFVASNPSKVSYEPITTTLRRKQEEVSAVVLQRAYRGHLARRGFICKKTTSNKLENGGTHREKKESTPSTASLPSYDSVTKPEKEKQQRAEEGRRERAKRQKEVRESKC
The experiment in a line: Modulation of late sodium current (INaL), PatchXpress high throughput electrophysiology. Type of test: cell-based. To be noted: HEK293; 1 μM compound; HEK-293 cells expressing recombinant hNav1.6; late current evoked by 300 nM ATX-II. How it is done:
Functional characterization of exemplary compounds to modulate INaL expressed by the Nav1.6 voltage-gated sodium channel was accomplished using the PatchXpress' high throughput electrophysiology platform (Molecular Devices, Sunnyvale, Calif.). HEK-293 cells expressing recombinant, human Nav1.6 (hNav1.6) were grown in DMEM/high-glucose Dulbecco's modified, 10% FBS, 2 mM sodium pyruvate, 10 mM HEPES and 400 μg/mL G418. Cells were grown to 50%-80% confluency prior to harvesting. […] The onboard liquid handling facility of the PatchXpress was used for dispensing cells and applying test compounds. Nav late currents were evoked by the application of 300 nM ATX-II. […] INaL amplitude and stability were determined by analyzing the mean current amplitude over the final 20 ms of thetest pulse. […] Percent steady-state inhibition of INaL was calculated as: [(INaL_compound)/(INaL_control)]*100, where INaL_compound and INaL_control represent INaL recorded in the presence or absence of compound, respectively.
The inhibition is how much of the control response was suppressed. On to `Cc1cc(OC(F)(F)F)ccc1-c1cnc2ncc(C(F)(F)F)n2c1` [Compound 31, 6-[2-methyl-4-(trifluoromethoxy)phenyl]-3-(trifluoromethyl)imidazo[1,2-a]pyrimidine], for which the inhibition at 1 µM is less than 50%.
As to `Cc1cc(OC(F)(F)F)ccc1-c1cc2ccnn2cn1` [Compound 22, 5-[2-methyl-4-(trifluoromethoxy)phenyl]pyrazolo[1,5-c]pyrimidine], the inhibition at 1 µM was less than 50%.
`Cc1cc(OC(F)(F)F)ccc1-c1cnn2ncc(C(F)(F)F)c2c1` [Compound 27, 5-[2-methyl-4-(trifluoromethoxy)phenyl]-3-(trifluoromethyl)pyrazolo[1,5-b]pyridazine]: the inhibition at 1 µM was less than 50%.
In the case of `Cc1cc(OC(F)(F)F)ccc1-c1cnn2nccc2c1` [Compound 26, 5-[2-methyl-4-(trifluoromethoxy)phenyl]pyrazolo[1,5-b]pyridazine], the inhibition at 1 µM is less than 50%.
Regarding `FC(F)(F)COc1ccc(-c2ccn3ncc(C(F)(F)F)c3c2)cn1` [Compound 45, 5-[6-(2,2,2-trifluoroethoxy)-3-pyridyl]-3-(trifluoromethyl)pyrazolo[1,5-a]pyridine], the inhibition at 1 µM was greater than 50%.
On to `COCc1cc(OC(F)(F)F)ccc1-c1cn2c(C(F)(F)F)cnc2cn1` [Compound 41, 6-[2-(methoxymethyl)-4-(trifluoromethoxy)phenyl]-3-(trifluoromethyl)imidazo[1,2-a]pyrazine], for which the inhibition at 1 µM was greater than 50%.
For `COc1cc(OC(F)(F)F)ccc1-c1ccn2ncc(C(F)(F)F)c2c1` [Compound 42, 5-[2-methoxy-4-(trifluoromethoxy)phenyl]-3-(trifluoromethyl)pyrazolo[1,5-a]pyridine], the inhibition at 1 µM was greater than 50%.
Take `Cc1cc(OC(F)(F)F)ccc1-c1cnn2ncc(C(=O)N(C)C)c2c1` [Compound 50, N,N-dimethyl-5-[2-methyl-4-(trifluoromethoxy)phenyl]pyrazolo [1,5-b]pyridazine-3-carboxamide]: the inhibition at 1 µM was less than 50%.
Regarding `COc1cc(OC(F)(F)F)ccc1-c1ccn2nccc2c1` [Compound 14, 5-[2-methoxy-4-(trifluoromethoxy)phenyl]pyrazolo[1,5-a]pyridine], the inhibition at 1 µM was greater than 50%.
Turning to `FC(F)(F)Oc1ccc(-c2cnc3ncc(C(F)(F)F)n3c2)cc1` [Compound 17], the inhibition at 1 µM is less than 50%.
In the case of `FC(F)(F)Oc1ccc(-c2cc3ccnn3cn2)cc1` [Compound 24, 5-[4-(trifluoromethoxy)phenyl]pyrazolo[1,5-c]pyrimidine], the inhibition at 1 µM was less than 50%.
The figure for `FC(F)(F)Oc1ccc(-c2ccc3nccn3c2)cc1` [Compound 6] is less than 50%; for `FC(F)(F)Oc1ccc(-c2cnn3nccc3c2)cc1` [Compound 28, 5-[4-(trifluoromethoxy)phenyl]pyrazolo[1,5-b]pyridazine] it is less than 50%; for `FC(F)(F)COc1ccc(-c2ccc3ncc(C(F)(F)F)n3c2)cn1` [Compound 3] it is greater than 50%.
Regarding `COC(C)(C)c1ccc(-c2ccc3ncc(C(F)(F)F)n3c2)cc1` [Compound 4], the inhibition at 1 µM was greater than 50%.
On to `FC(F)(F)Oc1ccc(-c2cn3ccnc3cn2)cc1` [Compound 20], for which the inhibition at 1 µM was less than 50%.
Consider `COc1cc(OC(F)(F)F)ccc1-c1ccc2ncc(C(F)(F)F)n2c1` [Compound 2], for which the inhibition at 1 µM is greater than 50%.
As for `N#CC1(c2ccc(-c3cn4c(C(F)(F)F)cnc4cn3)cc2)CC1` [Compound 35, 1-[4-[3-(trifluoromethyl)imidazo[1,2-a]pyrazin-6-yl]phenyl]cyclopropanecarbonitrile], the inhibition at 1 µM is less than 50%.
The figure for `COCc1cc(OC(F)(F)F)ccc1-c1cnc2ncc(C(F)(F)F)n2c1` [Compound 30, 6-[2-(methoxymethyl)-4-(trifluoromethoxy)phenyl]-3-(trifluoromethyl)imidazo[1,2-a]pyrimidine] is less than 50%; for `COC(C)(C)c1ccc(-c2ccn3ncc(C(F)(F)F)c3c2)cc1` [Compound 44, 5-[4-(1-methoxy-1-methyl-ethyl)phenyl]-3-(trifluoromethyl)pyrazolo[1,5-a]pyridine] it is less than 50%.
For `Cc1nc2ncc(-c3ccc(OC(F)(F)F)cc3)cn2c1C(F)(F)F` [Compound 33, 2-methyl-6-[4-(trifluoromethoxy)phenyl]-3-(trifluoromethyl)imidazo[1,2-a]pyrimidine], the inhibition at 1 µM was less than 50%.
Then `Cc1cn2cc(-c3ccc(OC(F)(F)F)cc3)cnc2n1` [Compound 32, 2-methyl-6-[4-(trifluoromethoxy)phenyl]imidazo[1,2-a]pyrimidine], with less than 50%; and `FC(F)(F)Oc1ccc(-c2cnc3nccn3c2)cc1` [Compound 16], with less than 50%; and `FC(F)(F)c1ccc(-c2cn3c(C(F)(F)F)cnc3cn2)cc1` [Compound 34, 3-(trifluoromethyl)-6-[4-(trifluoromethyl)phenyl]imidazo[1,2-a]pyrazine], with greater than 50%.
Regarding `Fc1cc(-c2cn3c(C(F)(F)F)cnc3cn2)cnc1OCC(F)(F)F` [Compound 36, 6-[5-fluoro-6-(2,2,2-trifluoroethoxy)-3-pyridyl]-3-(trifluoromethyl)imidazo[1,2-a]pyrazine], the inhibition at 1 µM was greater than 50%.
Regarding `N#CC1(c2ccc(-c3ccc4ncc(C(F)(F)F)n4c3)cc2)CC1` [Compound 5], the inhibition at 1 µM was less than 50%.
Then `FC(F)(F)Oc1ccc(-c2ccc3ncc(C(F)(F)F)n3n2)cc1` [Compound 19], with less than 50%.
Consider `N#CC1(c2ccc(-c3ccn4ncc(C(F)(F)F)c4c3)cc2)CC1` [Compound 43, 1-[4-[3-(trifluoromethyl)pyrazolo[1,5-a]pyridin-5-yl]phenyl]cyclopropanecarbonitrile], for which the inhibition at 1 µM is less than 50%.
Take `FC(F)(F)Oc1ccc(-c2cn3c(C(F)(F)F)cnc3cn2)cc1` [Compound 21]: the inhibition at 1 µM was greater than 50%.
On to `Cc1cc(OC(F)(F)F)ccc1-c1cc2c(C(F)(F)F)cnn2cn1` [Compound 23, 5-[2-methyl-4-(trifluoromethoxy)phenyl]-3-(trifluoromethyl)pyrazolo[1,5-c]pyrimidine], for which the inhibition at 1 µM was less than 50%.
`FC(F)(F)Oc1ccc(-c2cnn3ncc(C(F)(F)F)c3c2)cc1` [Compound 29, 5-[4-(trifluoromethoxy)phenyl]-3-(trifluoromethyl)pyrazolo[1,5-b]pyridazine]: the inhibition at 1 µM is greater than 50%.
`FC(F)(F)COc1ccc(-c2ccn3nccc3c2)cn1` [Compound 15, 5-[6-(2,2,2-trifluoroethoxy)-3-pyridyl]pyrazolo[1,5-a]pyridine]: the inhibition at 1 µM is greater than 50%.
Take `FC(F)(F)Oc1ccc(-c2ccc3nccn3n2)cc1` [Compound 18]: the inhibition at 1 µM is less than 50%.
Take `FC(F)(F)Oc1ccc(-c2cc3c(C(F)(F)C(F)(F)F)cnn3cn2)cc1` [Compound 25b, 3-(1,1,2,2,2-pentafluoroethyl)-5-[4-(trifluoromethoxy)phenyl]pyrazolo[1,5-c]pyrimidine]: the inhibition at 1 µM was greater than 50%.
Then `FC(F)(F)Oc1ccc(-c2cc3c(C(F)(F)F)cnn3cn2)cc1` [Compound 25a, 5-[4-(trifluoromethoxy)phenyl]-3-(trifluoromethyl)pyrazolo[1,5-c]pyrimidine], with greater than 50%.
